Measurements from patent US6762189B1, “5-pyrimidinecarboxamide derivatives and the pharmaceutical compositions containing said derivatives” (Dong Wha Pharm. Ind. Co., Ltd., priority 1999, dated 2004).

Assays:
HBV polymerase = target: T1, HBV polymerase (Hepatitis B virus genotype A2 subtype adw2, UniProt P03159); assay: In vitro reverse transcription activity of HBV polymerase (ELISA-type, DIG/biotin nucleotides); format: biochemical; settings: read-out: Inhibition activity on HBV-RT (%); for inhibition at 0.01 µg/mL: 0.01 μg/ml test compound; for inhibition at 0.1 µg/mL: 0.1 μg/ml test compound; for inhibition at 1 µg/mL: 1 μg/ml test compound
T1 construct: made in house; host or cells: E. coli
T1 sequence (P03159 whole entry): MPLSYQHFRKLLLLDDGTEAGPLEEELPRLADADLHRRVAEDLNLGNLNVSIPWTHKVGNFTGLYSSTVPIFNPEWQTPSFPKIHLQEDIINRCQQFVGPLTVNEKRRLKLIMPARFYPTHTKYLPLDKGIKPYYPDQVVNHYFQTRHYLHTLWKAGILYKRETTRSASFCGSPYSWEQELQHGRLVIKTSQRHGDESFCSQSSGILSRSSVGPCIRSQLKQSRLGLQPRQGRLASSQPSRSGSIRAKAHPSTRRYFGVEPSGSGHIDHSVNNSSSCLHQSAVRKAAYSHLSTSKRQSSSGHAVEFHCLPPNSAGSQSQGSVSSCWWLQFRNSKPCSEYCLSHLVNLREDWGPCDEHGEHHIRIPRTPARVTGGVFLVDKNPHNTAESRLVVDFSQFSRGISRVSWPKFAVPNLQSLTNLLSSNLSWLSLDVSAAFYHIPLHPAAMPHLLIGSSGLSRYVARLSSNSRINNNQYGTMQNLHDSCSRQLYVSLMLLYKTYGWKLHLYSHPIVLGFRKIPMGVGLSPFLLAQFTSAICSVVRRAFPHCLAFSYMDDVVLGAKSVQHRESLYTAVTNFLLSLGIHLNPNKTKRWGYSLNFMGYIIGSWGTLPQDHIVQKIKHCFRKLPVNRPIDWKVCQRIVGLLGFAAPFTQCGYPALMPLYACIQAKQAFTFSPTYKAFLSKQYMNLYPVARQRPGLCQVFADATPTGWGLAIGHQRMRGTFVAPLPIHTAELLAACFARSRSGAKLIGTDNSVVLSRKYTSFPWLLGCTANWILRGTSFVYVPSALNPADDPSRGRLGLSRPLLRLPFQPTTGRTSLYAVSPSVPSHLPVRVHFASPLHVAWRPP
Method: The following in vitro experiment was performed to determine the effect of the compounds of formula 1 on the activity of HBV polymerase during reverse transcription.
The present inventors submitted application for a patent concerning HBV polymerase genetically expressed in and separated from E. coli, the process of its preparation, and the method to measure the enzyme activities (KR 94-3918, KR 96-33998). In the present experiments HBV polymerase was used which had been expressed in E. coli as stated above.
The method used in the present invention to measure in vitro reverse transcribing activities of HBV polymerase is as follows. Basic principles are the same as for ELISA. Nucleotides with biotin or digoxigenin group attached are included as substrates and anti-DIG antibodies attached to peroxidase enzyme recognize the polymerized substrates.
To the wells coated with streptavidin, 20 μl of HBV polymerase, 20 μl of reaction mixture (10 μM each of DIG-UTP and Biotin-UTP, 46 mM Tris-HCl, 266 mM KCl, 27.5 mM MgCl2, 9.2 mM DTT substrate/primer hybrid), and 20 μl of test compound (added to 1, 0.1, and 0.01 μg/ml) were added and allowed to react a 22° C. for 15 hrs. During this reaction, HBV polymerase catalyzes DNA synthesis and digoxigenin and biotin attached to nucleotides form bonds with streptavidin coated on the bottom of wells. When the reaction was done, each well was washed with 250μl of cleaning buffer (pH 7.0) for 30 seconds, which was repeated five times to remove remaining impurities. 200 μl of anti-DIG-POD antibody was added to each well and allowed to react for 1 hr at 37° C., and the wells were washed with cleaning buffer to remove impurities. 200μl each of ABTS™, a substrate of peroxidase, was then added and allowed to react at room temperature for 30 min. Absorbance was measured at 405 nm using ELISA reader.
The percentage of reduction in HBV polymerase activities for reverse transcription was calculated using the group without test compound as a control and the results are shown in Table 3.

HBV = assay: Inhibition of HBV proliferation in HBV producing cell line HepG 2.2.15 (competitive PCR of culture supernatant); format: cell-based, Hepatitis B virus; settings: Hepatitis B virus, HepG2.2.15, 168 h, HepG 2.2.15, one week, read-out: Inhibitory effect on the HBV proliferation, Inhibition activity on HBV-RT (%); for inhibition at 0.01 µg/mL: 0.01 μg/ml; for inhibition at 0.1 µg/mL: 0.1 μg/ml; for inhibition at 1 µg/mL: 1 μg/ml
Method: The following experiment was performed to determine inhibitory effects of compounds of formula on the proliferation of HBV producing cell line.
To test for antiviral effect, replication and proliferation of HBV were measured in HepG 2.2.15, a human liver cancer cell line.
The cell concentration was adjusted to 1×10^5 cells/ml and 1 ml was added to each well of a 24-well cell culture plate, which was then kept in a culture box for 3-4 days at 37° C. under 5% CO2 until cells grew sufficiently, changing culture medium everyday. When the cells matured sufficiently, the test compounds were added to the final concentrations of 0.01, 0.1, and 1 μg/ml. One week after the addition of test compounds, he culture solution was centrifuged at 5,000 rpm for 10 min. 25 μl of supernatant was transferred to a new tube and 5 μl of lysis solution [0.54N NaOH, 0.06% NP40] was added to each tube. After keeping the tube at 37° C. for 1 hr, 30 μl . of neutralizing solution [0.09NHCl, 0.1MTris-HCl, pH7.4] was added as a reaction solution for competitive polymerase chain reaction (PCR).
PCR was performed using genetic sequence of HBV core protein as a matrix. PCR reaction was carried out by adding 1 unit of Taq polymerase enzyme to 25 pmol of each primer, 250 μM dNTP, 5 μl of PCR reaction solution [0.54N NaOH, 0.06% NP40, 0.09N HCl, 0.1M Tris-HCl, pH 7.4].
DNA polymerized by PCR was electrophoresed on Agarose gel and quantitatively analyzed using an image analyzer (Gel Dcc 1000, Bio-Rad) in order to evaluate the effect of compounds of the present invention on the reduction of HBV proliferation.
3TC (lamivudine) was used as a positive control at the same concentrations as those of the test compounds. The percentage of reduction in HBV proliferation was calculated using the group without test compound as a control and the results are represented in Table 4.

inhibition at 0.01 µg/mL (HBV polymerase)	inhibition at 0.1 µg/mL (HBV polymerase)	inhibition at 1 µg/mL (HBV polymerase)	melting point	SMILES	inhibition at 0.01 µg/mL (HBV)	inhibition at 0.1 µg/mL (HBV)	inhibition at 1 µg/mL (HBV)
25%	42%	60%	225 to 228 °C	COCCNC(=O)c1cnc(SC)nc1Nc1ccc2cn[nH]c2c1 [Example 14, 4-(1H-6-indazolylamino)-N-(2-methoxyethyl)-2-methylthio-5-pyrimidinecarboxamide]			
50%	63%	82%	226 to 228 °C	COC(=O)[C@@H](NC(=O)c1cnc(SC)nc1Nc1ccc2cn[nH]c2c1)[C@@H](C)O [Example 24, 4-(1H-6-indazolylamino)-N-[(1S)-1-(methoxycarbonyl)-(2R)-2-hydroxypropyl]-2-methylthio-5-pyrimidinecarboxamide]			
18%	40%	51%	227 to 232 °C	COC(=O)[C@@H](NC(=O)c1cnc(SC)nc1Nc1ccc2[nH]ncc2c1)[C@@H](C)O [Example 23, 4-(1H-5-indazolylamino)-N-[(1S)-1-(methoxycarbonyl)-(2R)-2-hydroxypropyl]-2-methylthio-5-pyrimidinecarboxamide]			
43%	58%	82%	153 to 155 °C	CSc1ncc(C(=O)N2CCN(C)CC2)c(Nc2ccc3[nH]ncc3c2)n1 [Example 31, 4-(1H-5-indazolylamino)-5-[(4-methyl-1-piperazinyl)-carbonyl]-2-methylthiopyrimidine]			
15%	43%	59%	114 to 117 °C	CSc1ncc(C(=O)N2CCN(CCO)CC2)c(Nc2ccc3cn[nH]c3c2)n1 [Example 34, 5-[[4-(2-hydroxyethyl)-1-piperazinyl]carbonyl]-4-(1H-6-indazolylamino)-2-methylthiopyrimidine]			

More lines, now with the values behind:

SMILES	inhibition at 0.01 µg/mL (HBV polymerase)	inhibition at 0.1 µg/mL (HBV polymerase)	inhibition at 1 µg/mL (HBV polymerase)	melting point	inhibition at 0.01 µg/mL (HBV)	inhibition at 0.1 µg/mL (HBV)	inhibition at 1 µg/mL (HBV)
CSc1ncc(C(=O)NCCN(C)C)c(Nc2ccc3[nH]ncc3c2)n1 [Example 17, N-[2-(dimethylamino)ethyl]-4-(1H-5-indazolylamino)-2-methylthio-5-pyrimidinecarboxamide]	15%	51%	80%	111 to 114 °C			
CSc1ncc(C(=O)NCc2cccnc2)c(Nc2ccc3cn[nH]c3c2)n1 [Example 26, 4-(1H-6-indazolylamino)-2-methylthio-N-(3-pyridyl)methyl-5-pyrimidinecarboxamide]	55%	79%	98%	253 to 256 °C	47%	75%	97%
CSc1ncc(C(=O)N(C)C)c(Nc2ccc3[nH]ncc3c2)n1 [Example 15, N,N-dimethyl-4-(1H-5-indazolylamino)-2-methylthio-5-pyrimidinecarboxamide]	42%	61%	77%	101 to 105 °C	25%	52%	70%
CSc1ncc(C(=O)N2CCN(CCO)CC2)c(Nc2ccc3[nH]ncc3c2)n1 [Example 33, 5-[[4-(2-hydroxyethyl)-1-piperazinyl]carbonyl]-4-(1H-5-indazolylamino)-2-methylthiopyrimidine]	11%	32%	53%	166 to 170 °C			
CSc1ncc(C(=O)N2CCN(C)CC2)c(Nc2ccc3cn[nH]c3c2)n1 [Example 32, 4-(1H-6-indazolylamino)-5-[(4-methyl-1-piperazinyl)-carbonyl]-2-methylthiopyrimidine]	26%	40%	62%	102 to 106 °C			
CSc1ncc(C(=O)NCCCn2ccnc2)c(Nc2ccc3cn[nH]c3c2)n1 [Example 30, N-[3-(1H-1-imidazolyl)propyl]-4-(1H-6-indazolylamino)-2-methylthio-5-pyrimidinecarboxamide]	32%	58%	91%	230 to 232 °C			
CSc1ncc(C(=O)NN2CCN(C)CC2)c(Nc2ccc3cn[nH]c3c2)n1 [Example 22, 4-(1H-6-indazolylamino)-N-(4-methyl-1-piperazinyl)2-methylthio-5-pyrimidinecarboxamide]	28%	46%	72%	244 to 247 °C			
CSc1ncc(C(=O)NCCc2ccccn2)c(Nc2ccc3cn[nH]c3c2)n1 [Example 28, 4-(1H-6-indazolylamino)-2-methylthio-N-[2-(2-pyridyl)ethyl]-5-pyrimidinecarboxamide]	52%	70%	95%	230 to 231 °C	44%	68%	93%
CSc1ncc(C(=O)NCc2cccnc2)c(Nc2ccc3[nH]ncc3c2)n1 [Example 25, 4-(1H-5-indazolylamino)-2-methylthio-N-(3-pyridyl)methyl-5-pyrimidinecarboxamide]	53%	76%	97%	268 to 270 °C	40%	65%	92%
CSc1ncc(C(=O)NCCc2ccccn2)c(Nc2ccc3[nH]ncc3c2)n1 [Example 27, 4-(1H-5-indazolylamino)-2-methylthio-N-[2-(2-pyridyl)ethyl]-5-pyrimidinecarboxamide]	48%	60%	88%	220 to 223 °C	38%	55%	84%
